# Assay results from patent EP0367671B1, “Novel beta-D-phenylthioxylosides, their method of preparation and their use as pharmaceuticals” (FOURNIER INDUSTRIE ET SANTE, priority 1988, dated 1990).
# Test system: venous thrombosis
# Experiment: venous thrombosis protocol (venous stasis under hypercoagulation with activated factor X, Wessler technique; thrombus removed and weighed)
# Format: in vivo
# Conditions: Rattus norvegicus, po; 12.5 mg/kg p.o., suspension in PEG 400; thrombosis induced 4 hours after treatment; unfasted male Wistar rats
# Protocol: A venous stasis is produced under hypercoagulation according to the technique described by WESSLER et al. (J. Applied Physiol. 1959, p. 943-946). As in the technique described by J. HAUPMAN et al. (Thrombosis and Haemostasis 43 (2) 1980, p. 118), the hypercoagulant used is a solution of activated factor X (Xa) supplied by the company Flow Laboratories (71 Knat per 12.5 ml of physiological serum).
# The study is performed on unfasted male Wistar rats weighing 250 to 280 g and divided up into groups of 10 animals each. The test products are administered orally as a suspension in PEG 400. A thrombosis is induced 4 hours after this treatment and the thrombus formed is removed and weighed.
# The results obtained at a dose of 12.5 mg/kg p.o. have been collated in Table I. The results obtained with the known products of the above-mentioned prior art have also been collated in this Table.
row,SMILES,inhibition in vivo at 12.5 mg/kg
1,"N#Cc1ccc(S[C@@H]2SC[C@@H](O)[C@H](O)[C@H]2O)c(C(=O)c2ccccc2)c1 [Example 1, (2-benzoyl-4-cyanophenyl)-1,5-dithio-β-D-xylopyranoside]",69%
2,"CC(=O)O[C@@H]1[C@@H](OC(C)=O)[C@H](Sc2ccc(C#N)cc2C(=O)c2ccccc2)SC[C@H]1OC(C)=O [Example 1a, (2-benzoyl-4-cyanophenyl)-2,3,4-tri-O-acetyl-1,5-dithio-β-D-xylopyranoside]",43.8%
3,"N#Cc1ccc(S[C@@H]2SC[C@@H](O)[C@H](O)[C@H]2O)c(C(O)c2ccccc2)c1 (stereo partly drawn) [Example 2, (4-cyano-2-phenylhydroxymethylphenyl)-1,5-dithio-β-D-xylopyranoside]",61%
4,"O=C(c1ccccc1)c1ccccc1S[C@@H]1SC[C@@H](O)[C@H](O)[C@H]1O [Example 3, (2-benzoylphenyl)-1,5-dithio-β-D-xylopyranoside]",4%
5,"N#Cc1ccc(C(=O)c2ccccc2S[C@@H]2SC[C@@H](O)[C@H](O)[C@H]2O)cc1 [Example 4, (2-(4-cyanobenzoyl)phenyl)-1,5-dithio-β-D-xylopyranoside]",88%
6,"N#Cc1ccc(C(O)c2ccccc2S[C@@H]2SC[C@@H](O)[C@H](O)[C@H]2O)cc1 (stereo partly drawn) [Example 5, (2-(4-cyanophenylhydroxymethyl)phenyl)-1,5-dithio-β-D-xylopyranoside]",62%
7,"N#Cc1cccc(C(=O)c2ccccc2S[C@@H]2SC[C@@H](O)[C@H](O)[C@H]2O)c1 [Example 6, (2-(3-cyanobenzoyl)phenyl)-1,5-dithio-β-D-xylopyranoside]",59%
8,"N#Cc1cccc(C(O)c2ccccc2S[C@@H]2SC[C@@H](O)[C@H](O)[C@H]2O)c1 (stereo partly drawn) [Example 7, (2-(3-cyanophenylhydroxymethyl)phenyl)-1,5-dithio-β-D-xylopyranoside]",54%
9,"N#Cc1ccccc1C(=O)c1ccccc1S[C@@H]1SC[C@@H](O)[C@H](O)[C@H]1O [Example 8, (2-(2-cyanobenzoyl)phenyl)-1,5-dithio-β-D-xylopyranoside]",57%
10,"N#Cc1ccc(C(=O)c2cc(C(F)(F)F)ccc2S[C@@H]2SC[C@@H](O)[C@H](O)[C@H]2O)cc1 [Example 9, (2-(4-cyanobenzoyl)-4-trifluoromethylphenyl)-1,5-dithio-β-D-xylopyranoside]",56.5%
11,"N#Cc1ccc(C(O)c2cc(C(F)(F)F)ccc2S[C@@H]2SC[C@@H](O)[C@H](O)[C@H]2O)cc1 (stereo partly drawn) [Example 10, (2-(4-cyanophenylhydroxymethyl)-4-trifluoromethylphenyl)-1,5-dithio-β-D-xylopyranoside]",61%
